Results taken from patent publication US12528805B2, “Solid forms of emetine” (Acer Therapeutics, Inc., priority 2020, dated 2026).
Structures can show the parent of a compound that is named as a salt.

Key:
[1] = Solubility screening by solvent addition technique (approximate solubility); format: physicochemical; settings: thermodynamic from solid; water; at ambient temperature; small, fine particles remained (Experiment 25)
[2] = Solid form stability on storage (XRPD re-analysis); format: physicochemical
Procedure: The solids were dried under vacuum at ambient temperature (about 23° C.) for 17 h. The solids on the XRPD plate were stored at 40° C./75% RH for 22 h then re-analyzed. Amorphous and a mixture of Compound I dihydrochloride Form 2 and Form 6 were obtained (Table 7).
The solids were isolated by filtration after a total of 27.5 h at 5° C. and washed with 0.6 mL of cold acetone or 3×0.6 mL of cold heptane. The solids were dried under vacuum at ambient temperature (about 23° C.) for 17 h. The solids on the XRPD plate were stored at 40° C./75% RH for 22 h then re-analyzed by XRPD. Results, which are summarized in Table 8, show mixtures of Compound I dihydrochloride Forms 5 and 6, 5, 2 and 1, and 2 were obtained.
1.0 mL of water was added to approximately 300 mg of Compound I dihydrochloride Form 1. The resulting mixture was magnetically stirred at 50° C. over about 15 min, then stirred at 50° C. for 0.25 h. The solution was polish filtered (0.45 μm PTFE filter) into a 2 mL push-cap vial and then stirred at 50° C. for 0.25 h, prior to cooling to 5° C. at 0.1° C./min. After 62 h at 5° C., the experiment was sub-sampled and the solid was analyzed by XRPD. The material on the XRPD plate was dried under vacuum at 35° C. under a stream of wet nitrogen (20-38% RH) for about 9 h and then re-analyzed by XRPD. The material on the XRPD plate was stored at 25° C./60% RH for 22 h and then re-analyzed by XRPD. After a total of 87 h at 5° C., solids were isolated by centrifugation (0.22 μm nylon filter) and analyzed by XRPD. The solids were air-dried at ambient temperature (about 22° C.) for 24 h.
Small-scale crystallization Experiment 7 was sub-sampled prior to ASA and after ASA was complete, with solids isolated by centrifugation (0.22 μm nylon filter) and analyzed by XRPD.
Approximately 10 g of Compound I dihydrochloride Form 1 was dissolved in 67 mL of ethanol:water 99:1 v/v at about 60° C. (initial concentration: 150 mg/mL). Polish filtration was carried out (0.2 μm PTFE filter). The solution was transferred to a 250 mL vessel at 60° C. and stirred at 50° C. (solution temperature) and 300 rpm for about 5 min. The solution was seeded with about 100 mg (1 wt. %) of Compound I dihydrochloride Form 2, isolated from small-scale crystallization Experiments 12 and 13, from example 4 above. The seed dissolved rapidly. Anti-solvent addition of 10 mL of heptane (1 volume) was carried out at 2 vol/h (Heptane content of 13%). The solution was re-seeded with a further 100 mg (1 wt. %) of Form 2, isolated from small-scale crystallization Experiment 12. The seed persisted and a slurry formed. The slurry was stirred at 50° C. for 1 h and then anti-solvent addition of 131 mL of heptane at 1.5 vol/h was carried out, to reach 60% heptane. […] An additional 2 volumes of ethanol:water 99:1 v/v was added at the beginning of the ASA to mobilize the slurry. Once ASA was complete, the slurry was cooled to 5° C. at 0.1° C./min. The experiment was sub-sampled after about 2 h at 5° C. The slurry was thick but mixing. After 3.5 h at 5° C., an additional 3.6 mL of water was added to increase the water content to 2% (ethanol:water:heptane ratio of 39:2:59 v/v/v). The experiment was sub-sampled again after 2 h at 5° C. with additional water. After a total of 10 h at 5° C., solids were isolated by filtration and washed with 2 volumes of cold (5° C.) ethanol:heptane 40:60 v/v. The solids were filtered and dried under vacuum at ambient temperature (about 21° C.) for 14.5 h, then analyzed by XRPD.

[3] = Dynamic vapor sorption (DVS); settings: for DVS uptake: 25° C.
[4] = stored at 40° C./75% RH for 22 h

## CC[C@H]1CN2CCc3cc(OC)c(OC)cc3[C@@H]2C[C@@H]1C[C@H]1NCCc2cc(OC)c(OC)cc21 [Compound I dihydrochloride Form 1, (2S,3R,11bS)-2-(((R)-6,7-dimethoxy-1,2,3,4-tetrahydroisoquinolin-1-yl)methyl)-3-ethyl-9,10-dimethoxy-1,3,4,6,7,11b-hexahydro-2H-pyrido[2,1-a]isoquinoline dihydrochloride]
[1]
  solubility: > 200 mg/mL

## CC[C@H]1CN2CCc3cc(OC)c(OC)cc3[C@@H]2C[C@@H]1C[C@H]1NCCc2cc(OC)c(OC)cc21 [Compound I dihydrochloride Form 2, (2S,3R,11bS)-2-(((R)-6,7-dimethoxy-1,2,3,4-tetrahydroisoquinolin-1-yl)methyl)-3-ethyl-9,10-dimethoxy-1,3,4,6,7,11b-hexahydro-2H-pyrido[2,1-a]isoquinoline dihydrochloride]
[2]; stored at 40° C./75% RH for 22 h, dihydrochloride
  Solid form by XRPD after storage: maintained

## CC[C@H]1CN2CCc3cc(OC)c(OC)cc3[C@@H]2C[C@@H]1C[C@H]1NCCc2cc(OC)c(OC)cc21 [Compound I dihydrochloride Form 6, (2S,3R,11bS)-2-(((R)-6,7-dimethoxy-1,2,3,4-tetrahydroisoquinolin-1-yl)methyl)-3-ethyl-9,10-dimethoxy-1,3,4,6,7,11b-hexahydro-2H-pyrido[2,1-a]isoquinoline dihydrochloride]
[2]; storage at ambient conditions
  Solid form by XRPD after storage: maintained
[2]; stored at 25° C./60% RH for 22 h
  Solid form by XRPD after storage: maintained

## CC[C@H]1CN2CCc3cc(OC)c(OC)cc3[C@@H]2C[C@@H]1C[C@H]1NCCc2cc(OC)c(OC)cc21 [Compound I dihydrochloride Form 7B, (2S,3R,11bS)-2-(((R)-6,7-dimethoxy-1,2,3,4-tetrahydroisoquinolin-1-yl)methyl)-3-ethyl-9,10-dimethoxy-1,3,4,6,7,11b-hexahydro-2H-pyrido[2,1-a]isoquinoline dihydrochloride]
[3]; between 20-70% RH, cycle 2 sorption, material of large-scale Experiment 4 dried under vacuum at about 20° C. for 17.5 h
  DVS uptake: 8.7%
[3]; between 40-80% RH, cycle 1 sorption
  DVS uptake: about 3%
[3]; between 80-90% RH, cycle 1 sorption
  DVS uptake: large uptake
[3]; post-DVS XRPD: amorphous material was recovered
  Relative humidity of deliquescence: about 90 % RH

## CC[C@H]1CN2CCc3cc(OC)c(OC)cc3[C@@H]2C[C@@H]1C[C@H]1NCCc2cc(OC)c(OC)cc21 [Compound I dihydrochloride Form 8, (2S,3R,11bS)-2-(((R)-6,7-dimethoxy-1,2,3,4-tetrahydroisoquinolin-1-yl)methyl)-3-ethyl-9,10-dimethoxy-1,3,4,6,7,11b-hexahydro-2H-pyrido[2,1-a]isoquinoline dihydrochloride]
[2]; 1 h under ambient conditions
  Solid form by XRPD after storage: converted to Compound I dihydrochloride Form 2
[2]; 3 h under ambient conditions
  Solid form by XRPD after storage: converted to Form 2

## CC[C@H]1CN2CCc3cc(OC)c(OC)cc3[C@@H]2C[C@@H]1C[C@H]1NCCc2cc(OC)c(OC)cc21 [Form 2 with a trace Form 1]
[2]; [4]
  Solid form by XRPD after storage: Compound I dihydrochloride Form 2 was obtained

## CC[C@H]1CN2CCc3cc(OC)c(OC)cc3[C@@H]2C[C@@H]1C[C@H]1NCCc2cc(OC)c(OC)cc21 [mixture of Form 5 and Form 6]
[2]; storage at 5° C. for about 2 weeks
  Solid form by XRPD after storage: Conversion to Form 5
[2]; [4]
  Solid form by XRPD after storage: conversion back to Compound I dihydrochloride Form 5
